Reference: US8829029B2, “Dual modulators of 5HT2A and D3 receptors” (Hoffmann-La Roche Inc., priority 2008, dated 2014)

Tests used:
[1] = molecular target: human 5-HT2A serotonin receptor (Homo sapiens (Human), UniProt P28223); assay: Radioligand binding ([3H]-ketanserin) to cloned human 5-HT2A receptor expressed in HEK-293 EBNA cells; settings: membranes of transfected HEK-293 EBNA cells, 1.1 nM [3H]-ketanserin, 1 h at RT
How it was run: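 Membranes from transiently transfected HEK-293 EBNA cells incubated 1 h at RT with 1.1 nM [3H]-ketanserin (5-HT2A, 15 μg protein/well, Tris/MgCl2/EGTA pH 7.4) or 0.5 nM [3H]-spiperone (D3, 7.5 μg/well, Tris/NaCl/MgCl2/KCl/CaCl2 pH 7.4) plus test compound at 10 μM-0.1 nM. Nonspecific binding with 10 μM spiperone; filtration, Ki via Cheng-Prusoff.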

[2] = molecular target: human D3 dopamine receptor (Homo sapiens (Human), UniProt P35462); assay: Radioligand binding ([3H]-spiperone) to cloned human D3 receptor expressed in HEK-293 EBNA cells; settings: membranes of transfected HEK-293 EBNA cells, 0.5 nM [3H]-spiperone, 1 h at RT
How it was run: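 Membranes from HEK-293 EBNA cells transiently transfected with human D3 receptor, incubated 1 h at RT with ~0.5 nM [3H]-spiperone and ten compound concentrations (10 μM-0.1 nM); nonspecific binding with 10 μM spiperone. Filtered, scintillation counted; IC50 from four-parameter fit, Ki via Cheng-Prusoff using saturation Kd.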

Chain of human D3 dopamine receptor (P35462 whole entry): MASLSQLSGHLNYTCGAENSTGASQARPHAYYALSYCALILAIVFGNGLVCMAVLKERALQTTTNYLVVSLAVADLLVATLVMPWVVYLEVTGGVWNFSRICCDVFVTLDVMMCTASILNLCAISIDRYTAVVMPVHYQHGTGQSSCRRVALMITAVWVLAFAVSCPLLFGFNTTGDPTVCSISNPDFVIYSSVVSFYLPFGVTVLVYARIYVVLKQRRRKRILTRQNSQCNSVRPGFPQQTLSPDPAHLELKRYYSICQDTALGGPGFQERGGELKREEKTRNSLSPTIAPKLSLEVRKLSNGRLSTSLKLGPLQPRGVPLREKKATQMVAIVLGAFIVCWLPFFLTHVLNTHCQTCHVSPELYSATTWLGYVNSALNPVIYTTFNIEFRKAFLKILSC

| Molecule | Ki [1] [nM] | Ki [2] [nM] |
| --- | --- | --- |
| O=C(CCO)N[C@H]1CC[C@H](CCN2CCC(c3noc4cc(F)c(F)cc34)CC2)CC1 [Example 68, N-trans-(4-{2-[4-(5,6-Difluoro-benzo[d]isoxazol-3-yl)-piperidin-1-yl]-ethyl}-cyclohexyl)-3-hydroxy-propionamide] | 24.8 | 11.7 |
| O=C(C[C@H]1CC[C@H](O)CC1)N[C@H]1CC[C@H](CCN2CCC(c3noc4cc(F)c(F)cc34)CC2)CC1 [Example 69, N-trans-(4-{2-[4-(5,6-Difluoro-benzo[d]isoxazol-3-yl)-piperidin-1-yl]-ethyl}-cyclohexyl)-2-(4-hydroxy-cyclohexyl)-acetamide] | 7.85 | 20.9 |
| O=C(C[C@@H]1CC[C@@H](O)C1)N[C@H]1CC[C@H](CCN2CCC(c3noc4cc(F)c(F)cc34)CC2)CC1 [Example 70, N-trans-(4-{2-[4-(5,6-Difluoro-benzo[d]isoxazol-3-yl)-piperidin-1-yl]-ethyl}-cyclohexyl)-2-((1R,3R)-3-hydroxy-cyclopentyl)-acetamide] | 11.4 | 19.8 |
| O=C(N[C@H]1CC[C@H](CCN2CCC(c3noc4cc(F)c(F)cc34)CC2)CC1)C1CCOCC1 [Example 71, Tetrahydro-pyran-4-carboxylic acid trans-(4-{2-[4-(5,6-difluoro-benzo[d]isoxazol-3-yl)-piperidin-1-yl]-ethyl}-cyclohexyl)-amide] | 7.86 | 18.2 |
| O=C(CC1OCCCO1)N[C@H]1CC[C@H](CCN2CCC(c3noc4cc(F)c(F)cc34)CC2)CC1 [Example 72, N-trans-(4-{2-[4-(5,6-Difluoro-benzo[d]isoxazol-3-yl)-piperidin-1-yl]-ethyl}-cyclohexyl)-2-[1,3]dioxan-2-yl-acetamide] | 9.39 | 13.5 |
| CC(=O)N[C@H]1CC[C@H](CCN2CCC(c3noc4cc(C)ccc34)CC2)CC1 [Example 73, N-trans-(4-{2-[4-(6-Methyl-benzo[d]isoxazol-3-yl)-piperidin-1-yl]-ethyl}-cyclohexyl)-acetamide] | 16.8 | 9.28 |
| N-trans-(4-{2-[4-(6-Chloro-benzo[d]isoxazol-3-yl)-piperidin-1-yl]-ethyl}-cyclohexyl)-2-trans (4-methoxy-cyclohexyl)-acetamide [Example 35] | 9.64 | 11.6 |
